Measurements reported in patent US4331606A, “N-(Substituted chromone-3-carbonyl)-phenylglycine derivatives” (Eisai Co., Ltd., priority 1980, dated 1982).
Values after ≈ are worked out from the molar mass of the structure shown.

Key:
Assay type in all cases: cell-based
[1] = tested on: Staphylococcus aureus 209-P; assay: Antibacterial Activity (MIC) against Staphylococcus aureus 209-P
[2] = tested on: Escherichia coli NIHJ; assay: Antibacterial Activity (MIC) against Escherichia coli NIHJ
[3] = tested on: Serratia marcescens ES-75; assay: Antibacterial Activity (MIC) against Serratia marcescens ES-75; conditions: ES75
[4] = tested on: Pseudomonas aeruginosa EP-172; assay: Antibacterial Activity (MIC) against Pseudomonas aeruginosa EP-172; conditions: EP172
[5] = tested on: Proteus morganii EP-14; assay: Antibacterial Activity (MIC) against Proteus morganii EP-14; conditions: Morganella morganii, EP14
[6] = tested on: Klebsiella pneumoniae EK-6; assay: Antibacterial Activity (MIC) against Klebsiella pneumoniae EK-6; conditions: EK6

Compound | MIC [1] [µg/mL] | MIC [2] [µg/mL] | MIC [3] [µg/mL] | MIC [4] [µg/mL] | MIC [5] [µg/mL] | MIC [6] [µg/mL]
CCOC(=O)Oc1cc2occ(C(=O)N[C@@H](C(=O)N[C@@H]3C(=O)N4C(C(=O)O)=C(CSc5nnnn5CC(=O)O)CS[C@H]34)c3ccc(O)cc3)c(=O)c2cc1OC(=O)OCC [Preparatory Example 2 (A), 7β-[D-2-{6,7-bis(ethoxycarbonyloxy)chromone-3-carboxamido}-2-(4-hydroxyphenyl)acetamido]-3-[(1-carboxymethyl-5-tetrazolyl)thiomethyl]-3-cephem-4-carboxylic acid] | 6.25 (≈ 7.19 µM) | 0.4 (≈ 0.46 µM) | ≥ 0.05 | 0.8 (≈ 0.92 µM) | 1.56 (≈ 1.79 µM) | ≥ 0.05
O=C(O)Cn1nnnc1SCC1=C(C(=O)O)N2C(=O)[C@@H](NC(=O)[C@H](NC(=O)c3coc4cc(O)c(O)cc4c3=O)c3ccc(O)cc3)[C@H]2SC1 [Preparatory Example 2 (B), 7β-[D-2-(6,7-Dihydroxychromone-3-carboxyamido)-2-(4-hydroxyphenyl)acetamido]-3-[(1-carboxymethyl-5-tetrazolyl)thiomethyl]-cephem-4-carboxylic acid] | 3.13 (≈ 4.31 µM) | 0.4 (≈ 0.551 µM) | ≥ 0.1 | 0.8 (≈ 1.1 µM) | 12.5 (≈ 17.2 µM) | ≥ 0.1
